Experimental data from ChEMBL document CHEMBL1151499, “Synthesis of a piperidinomethylthiophene derivative as H2-antagonist with inhibitory activity against Helicobacter pylori” (Bioorg Med Chem Lett, 1996).
≈ marks a conversion by molar mass, not a printed value.

What was measured:
Type in all cases: functional
Helicobacter pylori = experiment: Compound was tested for inhibitory activity against Helicobacter pylori No. 9470
[1] = biological target: Histamine H2 receptor (Cavia porcellus) (UniProt P47747); experiment: Compound was tested for Histamine H2 receptor antagonistic activity at 10 ug/ml
Sequence of Histamine H2 receptor (Cavia porcellus) (P47747 whole entry): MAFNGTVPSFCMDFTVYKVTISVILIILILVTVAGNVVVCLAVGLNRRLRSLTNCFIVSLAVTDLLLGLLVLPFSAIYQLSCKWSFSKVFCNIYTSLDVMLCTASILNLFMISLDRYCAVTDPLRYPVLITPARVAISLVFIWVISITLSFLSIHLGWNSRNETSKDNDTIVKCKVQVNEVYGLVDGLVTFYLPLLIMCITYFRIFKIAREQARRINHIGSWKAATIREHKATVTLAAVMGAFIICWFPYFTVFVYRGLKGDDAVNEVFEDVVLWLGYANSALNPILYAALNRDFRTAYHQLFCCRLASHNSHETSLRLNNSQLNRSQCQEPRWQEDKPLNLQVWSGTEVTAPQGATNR

Histamine H2 receptor = Histamine H2 receptor (Cavia porcellus, UniProt P47747); experiment: Histamine H2 receptor antagonistic activity
Sequence of Histamine H2 receptor (P47747 whole entry): as above

**Q.** `O=c1c(NC/C=C\COc2csc(CN3CCCCC3)c2)c(NCC(F)(F)C(F)(F)C(F)(F)F)c1=O` was tested. Which MIC (Helicobacter pylori) did it give?
**A.** 6.25 µg/mL (≈ 11.5 µM)

**Q.** And the inhibition [1]?
**A.** 39%

**Q.** Which IC50 (Histamine H2 receptor) does the source give for `N#CCCNc1c(NC/C=C\COc2csc(CN3CCCCC3)c2)c(=O)c1=O` here?
**A.** 748 nM

**Q.** And the MIC (Helicobacter pylori)?
**A.** 25 µg/mL (≈ 60.3 µM)

**Q.** Which MIC (Helicobacter pylori) does the source give for `CN/C(=N\CCSCc1nc[nH]c1C)NC#N` [CIMETIDINE] here?
**A.** > 100 µg/mL

**Q.** What does the source list for `CN(C)Cc1cc(OC/C=C\C/N=c2\c(O)c(O)c2=N)cs1`?
**A.** IC50 (Histamine H2 receptor): 685 nM; MIC (Helicobacter pylori): 100 µg/mL (≈ 311 µM)

**Q.** With `C/N=c1\c(O)c(O)\c1=N/C/C=C\COc1csc(CN2CCCCC2)c1` as the compound, how does the IC50 (Histamine H2 receptor) read?
**A.** 1840 nM

**Q.** And the MIC (Helicobacter pylori)?
**A.** 12.5 µg/mL (≈ 33.3 µM)

**Q.** Which IC50 (Histamine H2 receptor) does the source give for `CN(C)CC/N=c1\c(O)c(O)\c1=N/C/C=C\COc1csc(CN2CCCCC2)c1` here?
**A.** 809 nM

**Q.** What about the MIC (Helicobacter pylori) of the same compound?
**A.** > 100 µg/mL

**Q.** For `C=CCNc1c(NC/C=C\COc2csc(CN3CCCCC3)c2)c(=O)c1=O`, which IC50 (Histamine H2 receptor) is on record?
**A.** 1270 nM

**Q.** What about the MIC (Helicobacter pylori) of the same compound?
**A.** > 100 µg/mL

**Q.** With `Nc1c(NC/C=C\COc2csc(CN3CCCCC3)c2)c(=O)c1=O` as the compound, how does the IC50 (Histamine H2 receptor) read?
**A.** 443 nM

**Q.** And the MIC (Helicobacter pylori)?
**A.** 100 µg/mL (≈ 277 µM)

**Q.** What does the source list for `CC(=O)OCC(=O)NCCCOc1cccc(CN2CCCCC2)c1` [ROXATIDINE ACETATE]?
**A.** IC50 (Histamine H2 receptor): 4100 nM; MIC (Helicobacter pylori): > 100 µg/mL

**Q.** How did the MIC (Helicobacter pylori) turn out when `O=c1c(NC/C=C\COc2csc(CN3CCCCC3)c2)c(NCC(F)(F)C(F)(F)F)c1=O` was run?
**A.** 25 µg/mL (≈ 50.7 µM)

**Q.** What about the inhibition [1] of the same compound?
**A.** 43%

**Q.** With `CC(C)/N=c1\c(O)c(O)\c1=N/C/C=C\COc1csc(CN2CCCCC2)c1` as the compound, how does the IC50 (Histamine H2 receptor) read?
**A.** 1930 nM

**Q.** And the MIC (Helicobacter pylori)?
**A.** 12.5 µg/mL (≈ 31 µM)

**Q.** What does the source list for `CN/C(=C/[N+](=O)[O-])NCCSCc1ccc(CN(C)C)o1` [RANITIDINE]?
**A.** IC50 (Histamine H2 receptor): 3340 nM; MIC (Helicobacter pylori): > 100 µg/mL

**Q.** What does the source list for `O=c1c(NC/C=C\COc2csc(CN3CCCCC3)c2)c(NCCF)c1=O`?
**A.** IC50 (Histamine H2 receptor): 1060 nM; MIC (Helicobacter pylori): 1.56 µg/mL (≈ 3.83 µM)

**Q.** How did the IC50 (Histamine H2 receptor) turn out when `COCC/N=c1\c(O)c(O)\c1=N/C/C=C\COc1csc(CN2CCCCC2)c1` was run?
**A.** 1140 nM

**Q.** What about the MIC (Helicobacter pylori) of the same compound?
**A.** > 100 µg/mL
